Results on eleven compounds are retold here after patent US20260295053A1, “COMPOUNDS FOR DEGRADATION AND INHIBITION OF KRAS (G12D) PROTEIN” (Shenzhen Ionova Life Science Co., Ltd., priority 2023, published 2026).

Each structure is given as a SMILES string.

Usually DC50 stands for the midpoint of the concentration-degradation curve. The low end stands for a more potent degrader, the high end for a less potent degrader.

The target of this assay is T1, KRAS (G12D) (Homo sapiens, UniProt P01116, G12D).
T1 construct: in-cell western with KRAS G12D antibody after 24 h
T1 sequence (P01116 1-188 isoform P01116-2 G12D): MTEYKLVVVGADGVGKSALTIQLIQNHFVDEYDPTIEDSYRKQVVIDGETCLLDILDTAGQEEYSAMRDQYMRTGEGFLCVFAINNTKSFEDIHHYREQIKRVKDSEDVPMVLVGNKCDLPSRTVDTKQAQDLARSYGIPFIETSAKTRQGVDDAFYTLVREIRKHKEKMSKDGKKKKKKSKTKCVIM
Description: KRAS (G12D) cellular degradation assay in AsPC-1 cells. The class given is cell-based. As to conditions: 24 hours, antibody fluorescence (Odyssey CLX), DC50 half-maximal degradation concentration. As for the experimental part: ASPC-1 and PK-59 cellular assays ASPC-1 (ATCC cat. CRL-1682) and PK-59 (Nanjing Cobioer, Cat. No. CBP61184) were used in KRAS cellular degradation, pERK inhibition and proliferation assays. The two cell lines were maintained following vendor's instructions. For monitoring KRAS (G12D) cellular degradation and pERK biomarker inhibition, cells were seeded into a 96-well plate with 22,000 and 16,000 cells/well for assays in ASPC-1 and PK-59, respectively. Cells were incubated at 37° C. with 5% CO2 and cell density was monitored until ^~90% confluency was reached. Compounds were serially diluted at a 1:3 ratio and dispensed into each well at final concentrations ranging from […] to 1.5 nM. After incubation for 24 hours, the culture media were removed and the cells were subjected to fixation, permeabilization and blocking (Intercept blocking buffer, Li-cor). For KRAS (G12D) degradation, the cells were treated with primary antibody (KRAS G12D antibody, Cell Signaling Technologies, Cat. No. CST14429) and for β-actin (β-actin mAb, Beyotime, Cat. No. AF-5001), and followed by secondary antibodies, Anti-rabbit IgG (H+L) (DyLight™ 800 4×PEG Conjugate) or IRDye® 680RD Goat anti-Mouse IgG. For pERK inhibition assay, cells were treated with primary antibodies for pERK (Phospho-p44/42 MAPK (Erk1/2) (Thr202/Tyr204) (D13.14.4E) XP® Rabbit mAb, Cell Signaling Technologies, Cat. No. CST-4370) and β-actin (β-actin mAb, Beyotime, Cat. No. AF-5001), and followed by secondary antibodies, Anti-rabbit IgG (H+L) (DyLight™ 800 4×PEG Conjugate) or IRDye® 680RD Goat anti-Mouse IgG. Fluorescence signals were read on Odyssey CLX instrument. For cell proliferation assays, cells were seeded into a 96-well plate at 3,500 and 800 cells/well for assays in ASPC-1 and PK-59, respectively. Cells were incubated at 37° C. with 5% CO2 for overnight. Compounds were serially diluted at a 1:3 ratio and dispensed into each well at final concentrations ranging from […] to 1.5 nM. After incubation for 6 days, cell viability reagent (CellTiter Glo, Promega, Cat. No. G7573) was added to each well and luminescence was recorded on Molecular Devices Spectramax iD3 instrument. IC50, half-maximal inhibitory concentration for pERK inhibition or cell proliferation, and DC50, half-maximal degradation concentration in KRAS (G12D) cellular degradation were determined by fitting the corresponding dose response curves using GraphPad Prism software.
Wherein “A” means the value <10 nM, “B” means 10 nM<the value <100 nM, “C” means 100 nM<the value <1000 nM, and “D” means the value >1000 nM, in which, the value means the value of DC50 or IC50. NT means not tested.
Compound `CCn1nccc1-c1ccc([C@@H](NC(=O)[C@@H]2C[C@@H](O)CN2C(=O)[C@H](C(C)C)n2cc(-c3ccc(COc4c(-c5c(C)c(F)cc6[nH]ncc56)c(C5CC5)cc5c(N(C)[C@@H]6CCNC6)nc(O[C@H]6C[C@H](OC)C6)nc45)cc3)nn2)[C@H](C)O)cc1F` [Example 220, (2S,4R)-1-((2S)-2-(4-(4-(((6-cyclopropyl-7-(6-fluoro-5-methyl-1H-indazol-4-yl)-2-((1r,3R)-3-methoxycyclobutoxy)-4-(methyl((R)-pyrrolidin-3-yl)amino)quinazolin-8-yl)oxy)methyl)phenyl)-1H-1,2,3-triazol-1-yl)-3-methylbutanoyl)-N-((1R,2S)-1-(4-(1-ethyl-1H-pyrazol-5-yl)-3-fluorophenyl)-2-hydroxypropyl)-4-hydroxypyrrolidine-2-carboxamide] had a DC50 of less than 10 nM.

The compound `CCn1nccc1-c1ccc([C@H](CO)NC(=O)[C@@H]2C[C@@H](O)CN2C(=O)[C@H](C(C)C)n2cc(-c3ccc(COc4c(-c5c(C)c(F)cc6[nH]ncc56)c(C5CC5)cc5c(N6C[C@H]7C[C@@H]6CN7)nc(OC6CCOCC6)nc45)cc3)nn2)cc1` (single isomer, unassigned) [Example 16B] had a DC50 of more than 1000 nM.

`CO[C@@H](C)COc1nc(N2C[C@@H]3C[C@H]2CN3)c2cc(C3CC3)c(-c3c(C)c(F)cc4[nH]ncc34)c(OCc3ccc(-c4cn([C@H](C(=O)N5C[C@H](O)C[C@H]5C(=O)N[C@H](C#Cc5ccccc5)CO)C(C)C)nn4)cc3)c2n1` [Example 123, (2S,4R)-1-((2S)-2-(4-(4-(((4-((1S,4S)-2,5-diazabicyclo[2.2.1]heptan-2-yl)-6-cyclopropyl-7-(6-fluoro-5-methyl-1H-indazol-4-yl)-2-((S)-2-methoxypropoxy)quinazolin-8-yl)oxy)methyl)phenyl)-1H-1,2,3-triazol-1-yl)-3-methylbutanoyl)-4-hydroxy-N—((R)-1-hydroxy-4-phenylbut-3-yn-2-yl)pyrrolidine-2-carboxamide] gave a DC50 of 10 to 100 nM.

In the case of `CCn1nccc1-c1ccc([C@H](CO)NC(=O)[C@@H]2C[C@@H](O)CN2C(=O)[C@H](C(C)C)n2cc(-c3ccc(COc4c(-c5c(C)c(F)cc6[nH]ncc56)c(C5CC5)cc5c(N6CCC(N)CC6)nc(OC[C@H](C)OC)nc45)cc3)nn2)cc1` [Example 225, (2S,4R)-1-((2S)-2-(4-(4-(((4-(4-aminopiperidin-1-yl)-6-cyclopropyl-7-(6-fluoro-5-methyl-1H-indazol-4-yl)-2-((S)-2-methoxypropoxy)quinazolin-8-yl)oxy)methyl)phenyl)-1H-1,2,3-triazol-1-yl)-3-methylbutanoyl)-N—((R)-1-(4-(1-ethyl-1H-pyrazol-5-yl)phenyl)-2-hydroxyethyl)-4-hydroxypyrrolidine-2-carboxamide], the DC50 was less than 10 nM.

The compound `Cc1ncsc1-c1ccc([C@H](CO)NC(=O)[C@@H]2C[C@@H](O)CN2C(=O)[C@H](C(C)C)n2cc(-c3ccc(COc4c(-c5c(C)c(F)cc6[nH]ncc56)c(C5CC5)cc5c(N6C[C@H]7C[C@@H]6CN7)nc(OC6CCOCC6)nc45)cc3)nn2)cc1` (single isomer, unassigned) [Example 5A] came in with a DC50 of less than 10 nM.

In turn, `CCn1nccc1-c1ccc([C@H](CO)NC(=O)[C@@H]2C[C@@H](O)CN2C(=O)[C@H](C(C)C)n2cc(-c3ccc(COc4c(-c5c(C)c(F)cc6[nH]ncc56)c(C5CC5)cc5c(N6CCCNCC6)nc(OC[C@H](C)OC)nc45)cc3)nn2)c2c1CC2` [Example 224, (2S,4R)-1-((2S)-2-(4-(4-(((6-cyclopropyl-4-(1,4-diazepan-1-yl)-7-(6-fluoro-5-methyl-1H-indazol-4-yl)-2-((S)-2-methoxypropoxy)quinazolin-8-yl)oxy)methyl)phenyl)-1H-1,2,3-triazol-1-yl)-3-methylbutanoyl)-N—((R)-1-(5-(1-ethyl-1H-pyrazol-5-yl)bicyclo[4.2.0]octa-1(6),2,4-trien-2-yl)-2-hydroxyethyl)-4-hydroxypyrrolidine-2-carboxamide] gave a DC50 of less than 10 nM.

`CCn1nccc1-c1ccc([C@H](CO)NC(=O)[C@@H]2C[C@@H](O)CN2C(=O)[C@H](C(C)C)n2cc(-c3ccc(COc4c(-c5c(C)c(F)c(F)c6[nH]ncc56)c(C5CCC5)cc5c(N6C[C@@H]7C[C@H]6CN7)nc(OC[C@H](C)OC)nc45)cc3)nn2)cc1` [Example 106, (2S,4R)-1-((2S)-2-(4-(4-(((4-((1S,4S)-2,5-diazabicyclo[2.2.1]heptan-2-yl)-6-cyclobutyl-7-(6,7-difluoro-5-methyl-1H-indazol-4-yl)-2-((S)-2-methoxypropoxy)quinazolin-8-yl)oxy)methyl)phenyl)-1H-1,2,3-triazol-1-yl)-3-methylbutanoyl)-N—((R)-1-(4-(1-ethyl-1H-pyrazol-5-yl)phenyl)-2-hydroxyethyl)-4-hydroxypyrrolidine-2-carboxamide] showed a DC50 of 10 to 100 nM.

Consider `CCn1nccc1-c1ccc([C@H](CO)NC(=O)[C@@H]2C[C@@H](O)CN2C(=O)[C@H](C(C)C)n2cc(-c3ccc(COc4c(-c5c(C)c(F)cc6[nH]ncc56)c(C5CC5)cc5c(N(C)C[C@@H]6CCCN6)nc(OC[C@H](C)OC)nc45)cc3)nn2)cc1` [Example 228, (2S,4R)-1-((2S)-2-(4-(4-(((6-cyclopropyl-7-(6-fluoro-5-methyl-1H-indazol-4-yl)-2-((S)-2-methoxypropoxy)-4-(methyl(((S)-pyrrolidin-2-yl)methyl)amino)quinazolin-8-yl)oxy)methyl)phenyl)-1H-1,2,3-triazol-1-yl)-3-methylbutanoyl)-N—((R)-1-(4-(1-ethyl-1H-pyrazol-5-yl)phenyl)-2-hydroxyethyl)-4-hydroxypyrrolidine-2-carboxamide], for which the DC50 was less than 10 nM.

Regarding `CO[C@@H](C)COc1nc(N2C[C@@H]3C[C@H]2CN3)c2cc(C3CC3)c(-c3c(C)c(F)cc4[nH]ncc34)c(OCc3ccc(-c4cn([C@H](C(=O)N5C[C@H](O)C[C@H]5C(=O)N[C@H](C#Cc5cncc6ncsc56)CO)C(C)C)nn4)cc3)c2n1` [Example 118, (2S,4R)-1-((2S)-2-(4-(4-(((4-((1S,4S)-2,5-diazabicyclo[2.2.1]heptan-2-yl)-6-cyclopropyl-7-(6-fluoro-5-methyl-1H-indazol-4-yl)-2-((S)-2-methoxypropoxy)quinazolin-8-yl)oxy)methyl)phenyl)-1H-1,2,3-triazol-1-yl)-3-methylbutanoyl)-4-hydroxy-N—((R)-1-hydroxy-4-(thiazolo[4,5-c]pyridin-7-yl)but-3-yn-2-yl)pyrrolidine-2-carboxamide], the DC50 was in the range of 10 to 100 nM.

Take `CCn1nccc1-c1ccc([C@H](CO)NC(=O)[C@@H]2C[C@@H](O)CN2C(=O)[C@H](C(C)C)n2cc(-c3ccc(COc4c(-c5c(C)c(F)cc6[nH]ncc56)c(C5CCC5)cc5c(N6C[C@@H]7C[C@H]6CN7)nc(OC6CCC7(CC6)COC7)nc45)cc3)nn2)cc1` [Example 137, (2S,4R)-1-((2S)-2-(4-(4-(((2-((2-oxaspiro[3.5]nonan-7-yl)oxy)-4-((1S,4S)-2,5-diazabicyclo[2.2.1]heptan-2-yl)-6-cyclobutyl-7-(6-fluoro-5-methyl-1H-indazol-4-yl)quinazolin-8-yl)oxy)methyl)phenyl)-1H-1,2,3-triazol-1-yl)-3-methylbutanoyl)-N—((R)-1-(4-(1-ethyl-1H-pyrazol-5-yl)phenyl)-2-hydroxyethyl)-4-hydroxypyrrolidine-2-carboxamide]: the DC50 is less than 10 nM.

Take `CCn1nccc1-c1ccc([C@H](CO)NC(=O)[C@@H]2C[C@@H](O)CN2C(=O)[C@H](C(C)C)n2cc(-c3ccc(COc4c(-c5c(C)c(F)cc6[nH]ncc56)c(C5CC5)cc5c(N6C[C@@H]7C[C@H]6CN7)nc(N6CCC(OC)CC6)nc45)cc3)nn2)cc1` [Example 124, (2S,4R)-1-((2S)-2-(4-(4-(((4-((1S,4S)-2,5-diazabicyclo[2.2.1]heptan-2-yl)-6-cyclopropyl-7-(6-fluoro-5-methyl-1H-indazol-4-yl)-2-(4-methoxypiperidin-1-yl)quinazolin-8-yl)oxy)methyl)phenyl)-1H-1,2,3-triazol-1-yl)-3-methylbutanoyl)-N—((R)-1-(4-(1-ethyl-1H-pyrazol-5-yl)phenyl)-2-hydroxyethyl)-4-hydroxypyrrolidine-2-carboxamide]: the DC50 is less than 10 nM.
